{
  "source": "patent US20120004257A1",
  "about": "“NOVEL COMPOUNDS” (priority 2010, published 2012)",
  "assay_type_in_all_cases": "biochemical",
  "key": {"[1]": {"system": "dopamine (DA) reuptake in synaptosomes", "assay": "DA reuptake inhibition in synaptosomes", "details": "3H-DA, read-out: DA-uptake IC50", "description": "(§1) Compounds of the invention may be tested for their ability to inhibit reuptake of the monoamines dopamine, noradrenaline and serotonin in synaptosomes e.g. such as described in WO 97/30997 (NeuroSearch A/S) or WO 97/16451 (NeuroSearch A/S). The compounds of the invention may also be tested for their antinociceptive activity e.g. such as described below: Background: formalin injection into the rat hindpaw initiates […] spontaneous nociceptive behaviours consisting of either flinching, and licking and/or biting of the injected paw. The first phase occurs as a direct chemical stimulation of nociceptors, and is followed by a period of relative quiescence called interphase that can be attributed to activation of noxious inhibitory control pathways; primarily 5-HT and NA pathways originating from brainstem nuclei. The second phase occurs as a result of increased primary afferent afferent drive with subsequent sensitization of nociceptive spinal neurones (Coderre et al., 1993). Animals: adult male Sprague-Dawley rats (Harlan Scandinavia, Alleroed, Denmark). The experiments was performed according to the Ethical Guidelines of the International Association for the Study of Pain (Zimmermann, 1983) and the Danish Committee for Experiments on Animals. […] MED and ED50 values were calculated where possible. Data (mean+/−SEM) were analyzed using one way ANOVA followed by Bonferonni's t test. […]"}, "[2]": {"system": "noradrenaline (NA) reuptake in synaptosomes", "assay": "NA reuptake inhibition in synaptosomes", "details": "3H-NA, read-out: NA-uptake IC50", "description": "as §1"}, "[3]": {"system": "serotonine (5-HT) reuptake in synaptosomes", "assay": "5-HT reuptake inhibition in synaptosomes", "details": "3H-5-HT, read-out: 5-HT-uptake IC50", "description": "as §1"}},
  "note": "Structures can show the parent of a compound that is named as a salt.",
  "data": [
    {"smiles": "CCc1cc2ccc(O[C@@H]3C[C@H]4CC[C@@H](C3)N4)cc2oc1=O", "note": "[Compound 1.1, exo-7-[(8-Aza-bicyclo[3.2.1]oct-3-yl)oxy]-3-ethyl-chromen-2-one hydrochloride]", "values": [
      {"measurement": "IC50", "setting": "[1]", "value": 0.5, "unit": "µM"},
      {"measurement": "IC50", "setting": "[2]", "value": 0.047, "unit": "µM"},
      {"measurement": "IC50", "setting": "[3]", "value": 0.0078, "unit": "µM"}
    ]}
  ]
}
